# Data from publication PMC8069832, “New Amides and Phosphoramidates Containing Selenium: Studies on Their Cytotoxicity and Antioxidant Activities in Breast Cancer” (Antioxidants, 2021).
# Where two headings read alike, the source gives them in different places.
# What was measured:
# [1] = test system: HT-29; test: cells; conditions: Homo sapiens, HT-29, 48 h; for activity at 10 µM: read-out: Cell growth (%) HT-29; for GI50: read-out: GI50 HT-29; for CC50: read-out: LC50 HT-29; for IC (TGI): read-out: TGI HT-29
# [2] = test system: CCRF-CEM; test: cells; conditions: Homo sapiens, 48 h; for activity at 10 µM: read-out: Cell growth (%) CCRF-CEM; for GI50: read-out: GI50 CCRF-CEM; for CC50: read-out: LC50 CCRF-CEM; for IC (TGI): read-out: TGI CCRF-CEM
# [3] = test system: HTB-54; test: cells; assay type: cell-based; conditions: Homo sapiens; for CC50: read-out: LC50 HTB54; for GI50: read-out: GI50 HTB54; for IC (TGI): read-out: TGI HTB54
# Description: (§1) Cell lines were provided by the European Collection of Cell Cultures (ECACC) or by the American Type Culture Collection (ATCC). Seven cell lines were used: MCF-7 (breast adenocarnicoma), 184B5 (nonmalignant, mammary gland derived), CCRF-CEM (lymphoblastic leukemia), HT-29 (colon carcinoma), HTB-54 (lung carcinoma), BEAS-2B (nonmalignant, derived from the bronchial epithelium) and PC-3 (prostate carcinoma). MCF-7, CCRF-CEM, HT-29, HTB-54, BEAS-2B and PC-3 cell lines were grown in RPMI medium (Gibco) supplemented with 10% fetal bovine serum (FBS; Gibco), 100 units/mL penicillin and […] streptomycin (Gibco). 184B5 cells were grown in DMEM/F12 medium supplemented with 5% FBS, 1 × ITS (Lonza), 100 nM hydrocortisone (Aldich), 2 mM sodium pyruvate (Lonza), 20 ng/mL EGF (Sigma-Aldrich), 0.3 nM trans-retinoic acid (Sigma-Aldrich), 100 units/mL penicillin and […] streptomycin. Cells were maintained at 37 °C and 5% CO2.
# (§2) The cytotoxic effect of each substance was tested by the MTT method. Each compound was initially dissolved in DMSO at a concentration of 0.01 M, and serial dilutions were prepared with nonsupplemented medium. The cytotoxic effect of each compound was tested at 50 and 10 µM as a first screening. […]
# (§3) A total of 1 × 10^4 cells/well in 96-well plates were treated with increasing concentrations of the corresponding compounds for 48 h at 37 °C in a humidified atmosphere containing 5% CO2. Then, cells were incubated with 50 µL of MTT (2 mg/mL stock) for 4 h. The medium was then removed by aspiration, and the formazan crystals were dissolved in […] of DMSO. […] Data were obtained from at least 3 independent experiments performed in quadruplicate. The standard error of the means (SEM) for the cytotoxic parameters was calculated applying the standard deviation formula to the mean values of each parameter for the three independent experiments performed.
# (§4) . Cisplatin was used as a standard drug. […]. […] The presence of electron-withdrawing groups (-NO2, -CF3, -Cl) in the phenyl ring favored the cytotoxic activity in the amides, but in the phosphoramidates, the best results were obtained for aliphatic chains methoxy (II.1b, II.2b) and ethoxy (II.1d, II.2d). […].
# [4] = test system: PC-3; test: cells; assay type: cell-based; conditions: Homo sapiens; for LC50: read-out: LC50 PC-3; for GI50: read-out: GI50 PC-3; for IC (TGI): read-out: TGI PC-3
# Description: as §1, §2, §3, §4
# [5] = test system: MCF-7; conditions: read-out: GI50 MCF-7; 48 h, average ± SEM
# [6] = MTT cytotoxicity in nonmalignant mammary gland derived cells; assay type: cell-based; conditions: human
# Description: as §1, §2, §3, §4
# (§5) The lack of selectivity toward cancerous cells is one of the major issues during the discovery and development of new anticancer agents. Therefore, we evaluated the cytotoxic activity of our compounds against two cell lines derived from nonmalignant breast tissue (184B5) and no malignant bronchial epithelium (BEAS-2B) (Table 2). […].
# [7] = test system: 184B5; test: as above; assay type: cell-based; conditions: for GI50 / IC (TGI): Homo sapiens; for GI50: read-out: GI50 184B5; for IC (TGI): read-out: TGI 184B5; for Selectivity index (SI) = GI50 (184B5)/GI50 (MCF-7): breast
# Description: as §1, §2, §3, §4, §5
# [8] = MTT cytotoxicity in nonmalignant bronchial epithelium cells; assay type: cell-based; conditions: human
# Description: as §1, §2, §3, §4, §5
# [9] = test system: BEAS-2B; test: as above; assay type: cell-based; conditions: for GI50 / IC (TGI): Homo sapiens, BEAS-2B, 48 h; for GI50: read-out: GI50 BEAS-2B; for IC (TGI): read-out: TGI BEAS-2B; for Selectivity index (SI) = GI50 (BEAS-2B)/GI50 (HTB-54): lung
# Description: as §1, §2, §3, §4, §5
# [10] = test system: MCF-7; test: cells; conditions: Homo sapiens, MCF7, 48 h; for activity at 10 µM: read-out: Cell growth (%) MCF-7; for GI50: read-out: GI50 MCF-7, 48 h, average ± SEM; for CC50: read-out: LC50 MCF-7; for IC (TGI): read-out: TGI MCF-7
# [11] = DPPH radical scavenging assay; conditions: for DPPH activity inhibition: after 30 min
# Description: The DPPH (1,1-diphenyl-2-picrylhydrazyl radical) assay measures the hydrogen donation ability of the antioxidant to convert the stable DPPH free radical into 1,1-diphenyl-2-(2,4,6-trinitrophenyl)-hydrazine. After radical reaction with the compounds, a decrease in the absorbance was detected at 517 nm, which is accompanied by a change of color from violet to light-yellow. The target compounds were dissolved in methanol to make 1 mg/mL stock solutions, which were diluted to five concentrations as test samples. Ascorbic acid was used as a standard, and the experiment was carried out on 96-well plates. The DPPH solution was prepared at a 100 µM concentration. For each test, 100 µL of DPPH solution was added to 100 µL of methanolic solution containing the tested derivatives, and the absorbance was determined at different time points. All the measurements were carried out in triplicate. Results were expressed as the percentage of the radical scavenged, calculated using the following formula:(1) % DPPH radical scavenging=Acontrol − Asample/Acontrol × 100 where Acontrol refers to the absorbance of the negative control, and Asample refers to the absorbance of the tested compounds. Results are expressed as a percentage of DPPH radical scavenged ± SEM.
# . Ascorbic acid and Trolox were used as radical scavenger gold standards. […]. No correlation was found for either structure–radical scavenging activity or antitumor–radical scavenging activity, except for compound I.2f, one of the selected cytotoxic agents. To further confirm this antioxidant activity, three compounds (I.1e, I.1g and I.2i) were also evaluated as DPPH radical scavengers at a lower concentration of 0.003 mg/mL (Figure 3B).
# [12] = 184B5, nonmalignant cells, 48 h
Compound,activity at 10 µM [1],GI50 [1],CC50 [1],IC (TGI) [1],activity at 10 µM [2],GI50 [2],CC50 [2],IC (TGI) [2],"CC50 ([3]; HTB-54, 48 h)","GI50 ([3]; HTB-54, 48 h, average ± SEM)","IC (TGI) ([3]; HTB-54, 48 h, average ± SEM)","LC50 ([4]; PC-3, 48 h)","GI50 ([4]; PC-3, 48 h, average ± SEM)","IC (TGI) ([4]; PC-3, 48 h, average ± SEM)",GI50 [5],LC50 (50% lethal concentration) at 48 h [6],activity at 10 µM [10],GI50 [10],CC50 [10],IC (TGI) [10],further results
N#C[Se]c1ccc(NC(=O)c2ccc([N+](=O)[O-])cc2)cc1 [I.2e],35.9%,0.8 ± 0.1 µM,> 100 µM,58.2 ± 6.4 µM,50.3%,31.6 ± 0.4 µM,> 100 µM,> 100 µM,> 100 µM,> 100 µM,> 100 µM,> 100 µM,> 100 µM,> 100 µM,0.6 ± 0.1 µM,> 100 µM,33.4%,< 1 µM,> 100 µM,54.4 ± 2.7 µM,"GI50 [7, 12]: 7.13 µM; IC (TGI) [7, 12]: > 100 µM; LC50 (50% lethal concentration) at 48 h [8]: > 100 µM; GI50 ([9]; nonmalignant cells): > 100 µM; IC (TGI) ([9]; nonmalignant cells): > 100 µM"
N#C[Se]c1ccc(NC(=O)c2ccc(Cl)cc2)cc1 [I.2b],52.3%,16.5 ± 3.6 µM,> 100 µM,> 100 µM,50.1%,8.7 ± 1.1 µM,> 100 µM,> 100 µM,> 100 µM,> 100 µM,> 100 µM,> 100 µM,> 100 µM,> 100 µM,0.5 ± 0.9 µM,> 100 µM,33.5%,< 1 µM,> 100 µM,51.8 ± 2.5 µM,"GI50 [7, 12]: 0.89 µM; IC (TGI) [7, 12]: > 100 µM; Selectivity index (SI) = GI50 (184B5)/GI50 (MCF-7) [7]: 1.53; LC50 (50% lethal concentration) at 48 h [8]: > 100 µM; GI50 ([9]; nonmalignant cells): > 100 µM; IC (TGI) ([9]; nonmalignant cells): > 100 µM"
N#C[Se]c1ccc(NC(=O)c2cccs2)cc1 [I.2i],85.3%,–,–,–,43.6%,–,–,–,–,–,–,–,–,–,–,–,74.5%,–,–,–,"DPPH radical scavenging activity ([11]; 0.003 mg/mL): some moderate effect was observed; DPPH radical scavenging activity ([11]; 0.03 mg/mL, 0-120 min): the most active radical scavenger; DPPH activity inhibition ([11]; 0.03 mg/mL): greater than 35%"
O=C(Nc1ccc([Se][Se]c2ccc(NC(=O)c3ccc([N+](=O)[O-])cc3)cc2)cc1)c1ccc([N+](=O)[O-])cc1 [I.1e],49.2%,16.8 ± 2.5 µM,72.3 ± 1.8 µM,44.6 ± 3.1 µM,35.4%,6.5 ± 1.5 µM,67 ± 2 µM,33.8 ± 2 µM,72.8 ± 1.4 µM,16.9 ± 3.1 µM,44.8 ± 2.3 µM,64.9 ± 1.1 µM,2.5 ± 0.2 µM,28.5 ± 1.9 µM,–,68.2 µM,45.2%,7.4 ± 1 µM,73.4 ± 0.1 µM,40.1 ± 0.1 µM,"DPPH radical scavenging activity ([11]; 0.003 mg/mL): some moderate effect was observed; DPPH activity inhibition ([11]; 0.03 mg/mL): greater than 35%; GI50 [7, 12]: 7.76 µM; IC (TGI) [7, 12]: 33.8 µM; Selectivity index (SI) = GI50 (184B5)/GI50 (MCF-7) [7]: 1.14; LC50 (50% lethal concentration) at 48 h [8]: 15.8 µM; GI50 ([9]; nonmalignant cells): 0.42 µM; IC (TGI) ([9]; nonmalignant cells): 4.8 µM; Selectivity index (SI) = GI50 (BEAS-2B)/GI50 (HTB-54) [9]: 0.02"
COP(=O)(Nc1ccc([Se]C#N)cc1)OC [II.2b],-69.4%,2 ± 0.3 µM,5 ± 0.1 µM,3.5 ± 0.1 µM,-67.4%,1.6 ± 0.2 µM,4.8 ± 0.3 µM,3.2 ± 0.2 µM,34.6 ± 0.4 µM,–,–,49 ± 0.7 µM,–,–,0.6 ± 0.2 µM,–,-5.82%,< 1 µM,9.1 ± 0.7 µM,5 ± 1 µM,"GI50 ([3]; HTB-54, 48 h): 6.2 ± 0.2 µM; IC (TGI) ([3]; HTB-54, 48 h): 8.6 ± 0.4 µM; GI50 ([4]; PC-3, 48 h): 6.4 ± 0.2 µM; IC (TGI) ([4]; PC-3, 48 h): 9.3 ± 0.1 µM; CC50 at 48 h ([6]; nonmalignant cells, 48 h, read-out: LC50 184B5): 8.44 µM; GI50 ([7]; 184B5, 48 h): 5.44 µM; IC (TGI) ([7]; 184B5, 48 h): 6.94 µM; Selectivity index (SI) = GI50 (184B5)/GI50 (MCF-7) [7]: 7.56; LC50 (50% lethal concentration) at 48 h ([8]; nonmalignant cells, 48 h, read-out: LC50 BEAS-2B): 8.38 µM; GI50 [9]: 5.22 µM; IC (TGI) [9]: 6.8 µM; Selectivity index (SI) = GI50 (BEAS-2B)/GI50 (HTB-54) [9]: 0.84"
